# Earlier results as cited in publication PMC10238757 (Pharmacology Research & Perspectives, 2023).
# Assays:
# [1] = at higher doses; cited from earlier work
# HIV-1 = conditions: cited from earlier work
SMILES,absorption behaviour [1],potency in vitro (HIV-1)
C=C(C)[C@@H]1CC[C@]2(NCCN3CCS(=O)(=O)CC3)CC[C@]3(C)[C@H](CC[C@@H]4[C@@]5(C)CC=C(c6ccc(C(=O)O)cc6)C(C)(C)[C@@H]5CC[C@]43C)[C@@H]12 [GSK3532795],plateaus in absorption,–
"C=C(C)[C@@H]1CC[C@]2(NCCN3CCS(=O)(=O)CC3)CC[C@]3(C)[C@H](CC[C@@H]4[C@@]5(C)CC=C(C6=CC[C@@](CF)(C(=O)O)CC6)C(C)(C)[C@@H]5CC[C@]43C)[C@@H]12 [GSK3640254, reference compound]",plateaus in absorption,low nanomolar
